Measured values: patent US20240125678A1, “COMPOUND, CELLULAR VESICLE STAIN, AND METHOD FOR FLUORESCENT STAINING OF CELLULAR VESICLES” (National University Corporation Tokai National Higher …, priority 2021, published 2024)

Key:
[1] = system: incorporation of labeled melanosomes into keratinocyte cells; experiment: Inhibition of incorporation of labeled melanosomes into cells; format: cell-based; conditions: inhibitor final concentration 10 μM, 12 hours, melanosomes labeled with Compound 1, excitation 488 nm
Experimental: Incorporation of melanosomes into cells was measured in the presence of a melanosome uptake inhibitor. […] As the melanosome uptake inhibitor, 6-shogaol (192-16161 (Fujifilm Wako)) was used. • (13) After 12 hours, the cells were washed twice with 100 μL of phosphate buffer. • (14) A plate reader (GroMax Multi (Promega)) was used to measure the labeled melanosomes. […]
Comparative Example 4 is the same as Example 29 except that the measurement with the plate reader was performed for absorbance at 450 nm.

[2] = system: cellular vesicles / autophagosomes of B16F10 cells; experiment: Detection of autophagosomes using a PIKfyve inhibitor; format: cell-based, mouse; conditions: 3 μM
Experimental: An endosome-derived intracellular vesicle formation inhibitor (PIKfyve inhibitor) was used to detect autophagosomes. The procedure is illustrated below. • (1) 3×10^4 of B16F10 cells were plated in a glass bottom dish and cultured for 24 hours. • (2) Compound 1 was added to have the final concentration of 3 μM. • (3) Measurement was performed by using a fluorescence microscope. Note that the measurement was performed with excitation at 470 nm. • (4) PIKfyve inhibitor (HY-13228 (MedChemExpress)) was then added to the culture medium to have the final concentration of 10 μM, which was cultured for 1 hour. • (5) Measurement was performed by using the fluorescence microscope. • (6) PIKfyve inhibitor-containing culture medium was aspirated off, and washing operation was performed twice with a new culture medium, which was cultured with another new culture medium for 3 hours. • (7) Measurement was performed by using the fluorescence microscope.

[3] = system: cellular vesicles of B16F10 cells; experiment: Specificity 3: staining in the presence of foreign substances (mouse dung); format: cell-based; conditions: B16F10 cells mixed with mouse dung suspension; Compound 1 0.3 μM; CellMask reagent 1 μL
Experimental: Intracellular vesicles were fluorescently stained by Compound 1 in the presence of foreign substances. The procedure is illustrated below. • (1) 100 mg of mouse dung was collected, and the collected dung was suspended in 10-fold volume (1 mL) of phosphate buffer. • (2) B16F10 cells were detached using trypsin EDTA (NACALAI TESQUE) and collected, and 1×10^4 cells were suspended in 100 μL of phosphate buffer and mixed with 10 μL of the mouse dung suspension of (1) . • (3) The suspension of the cells and the […] was spread on a glass bottom dish, and 300 μM of Compound 1 was added to have the final concentration of 0.3 μM. • (4) Measurement was performed by using the fluorescence microscope. Note that the measurement was performed with excitation at 470 nm.
Comparative example 2 is the same as Example 19 except that, instead of Compound 1, 1 μL of CellMask reagent (C10045 (ThermoFisher)) was added to the suspension of the cells and the dung. Note that the measurement was performed with excitation at 540 nm.

milk exosomes [4] = experiment: Fluorescent staining of exosomes; conditions: 0.3 μM in phosphate buffer
[5] = system: cellular vesicles of keratinocyte cells (PSVK1); experiment: Fluorescent staining of cellular vesicles in keratinocyte cells (PSVK1); format: cell-based, human; conditions: 0.3 μM, excitation 470 nm
Experimental: Compound 1 was used to fluorescently stain cellular vesicles of keratinocyte cells (PSVK1). The procedure is illustrated below. • (1) PSVK1 cells (obtained from National Institute of Biomedical Innovation, Health and Nutrition, Cell Bank) were plated in a glass bottom dish and cultured for 24 hours. […] Note that the measurement was performed with excitation at 470 nm.

[6] = system: cellular vesicles of HEK293 cells; experiment: Fluorescent staining of cellular vesicles in HEK293 cells; format: cell-based, human; conditions: 0.3 μM, excitation 470 nm
Experimental: Compound 1 was used to fluorescently stain cellular vesicles of HEK293 cells. The procedure is illustrated below. • (1) HEK293A cells (ThermoFisher) were plated in a glass bottom dish and cultured for 24 hours. […] Note that the measurement was performed with excitation at 470 nm.

milk exosomes [7] = experiment: Calibration curve in exosome detection; conditions: 0.3 μM, milk exosomes 0.1 to 1 ng per well, fetal bovine serum/phosphate buffer
[8] = system: labeled milk exosomes in HEK293A cells; experiment: Incorporation of labeled exosomes into cells; format: cell-based, human
[9] = system: cellular vesicles of living B16F10 cells; experiment: Specificity 1: staining of cellular vesicles of living versus fixed (dead) cells; format: cell-based, mouse; conditions: B16F10, 0.3 μM, mixed fixed (dead) and living cells
[10] = system: cellular vesicles of B16F10 cells; experiment: Specificity 2: comparison with another cellular vesicle staining agent; format: cell-based, mouse; conditions: Compound 1 3 μM without washing, ExoSparkler Mem Dye-Red 1 μL/mL with washing
Experimental: Compound 1 was used for fluorescent staining of intracellular vesicles. The procedure is illustrated below. • (1) 3×10^4 of B16F10 cells were plated in a glass bottom dish and cultured for 24 hours. • (2) Compound 1 was added to the culture medium to have the final concentration of 3 μM. • (3) Measurement was performed by using the fluorescence microscope. Note that the measurement was performed with excitation at 470 nm.
Comparative example 1 is the same as Example 18 except that, instead of Compound 1, 1 μL/mL of ExoSparkler Mem Dye-Red (340-09671 (Dojindo Laboratories)) was added to the culture medium, the culture medium was aspirated off after the addition of ExoSparkler Mem Dye-Red, and a new culture medium was added for washing. Note that the measurement was performed with excitation at 540 nm.

[11] = system: cellular vesicles of mouse malignant melanoma cells B16F10; experiment: Fluorescent staining of intracellular vesicles with Compound 1 and anti-CD63 antibody; format: cell-based

SMILES | incorporation of labeled melanosomes into keratinocyte cells [1] | fluorescent staining of PIKfyve dependent cellular vesicles ([2]; before/after PIKfyve inhibitor 10 μM 1 hour) | fluorescent staining of autophagosome membrane ([2]; cultured 3 hours after removal of PIKfyve inhibitor) | specificity of fluorescent staining in the presence of foreign substances [3] | fluorescence with milk exosomes added (milk exosomes [4]; 10 ng milk exosomes, excitation 302 nm) | fluorescence without milk exosomes (Comparative example 3) (milk exosomes [4]; no milk exosome added) | fluorescent staining of cellular vesicle of PSVK1 cell [5] | fluorescent staining of cellular vesicle of HEK293 cell [6] | fluorescence intensity versus amount of added milk exosomes (milk exosomes [7]) | incorporation of exosomes labeled with the compound into cells ([8]; HEK293A cells, 12 hours after addition) | conjugation with exosomes (overlap with ExoSparkler Mem Dye-Red fluorescence) ([8]; milk exosomes stained 5 minutes with 0.3 μM) | staining of cellular vesicles of living cells versus dead cells [9] | specificity of fluorescent staining to cellular vesicles [10] | overlap of compound fluorescence with fluorescence of the antibody conjugated with CD63 ([11]; 0.3 μM, fixed, anti-CD63 antibody excited at 540 nm) | fluorescent staining of cellular vesicles ([11]; final concentration 0.3 μM, 5 minutes, excitation 470 nm)
CCCCC/C=C/C(=O)CCc1ccc(O)c(OC)c1 [melanosome uptake inhibitor, 6-shogaol] | incorporation of the labeled melanosomes into keratinocyte cells is inhibited | – | – | – | – | – | – | – | – | – | – | – | – | – | –
CN(C)c1ccc(CCCN(C)C2CCc3cc(OCCNc4ccc([N+](=O)[O-])c5nonc45)ccc32)cc1 (stereo not drawn) [Compound 1] | – | can also fluorescently stain the PIKfyve dependent cellular vesicles | the autophagosome membrane enclosing the melanosome was fluorescently stained | can specifically fluorescently stain cellular vesicles | conjugates with exosomes that are cellular vesicles and emits fluorescence | no fluorescence was emitted | can fluorescently stain | can fluorescently stain | the fluorescence intensity increased depending on the amount of externally added milk exosomes | are incorporated into cells | specifically conjugates with the exosomes | fluorescently stains cellular vesicles of living cells | high specificity to cellular vesicles | overlap each other | can fluorescently stain cellular vesicles
